How the values were obtained:
[1] = PAN-injury podocyte viability assay (Cell Titer-Glo); format: cell-based, human; conditions: human, no test compound, read-out: podocyte viability compared with untreated cells
From the text: (§1) Cell Culture. The human podocyte cell line (CIHP-1) is a […] isolated from human kidney. Podocytes are highly specialized, terminally differentiated cells with a complex cellular structure. They are a critical component of glomerular filtration. Cell cycle control, growth arrest and differentiation are key to the in vivo biology of podocytes. The conditionally immortalized podocyte cell line allows an in vitro process of maturation analogous to the development and maturation of podocytes in vivo. […] These include the novel podocyte proteins nephrin, podocin, CD2AP and synaptopodin. This robust cell line is extensively characterized and validated.
(§2) The growth medium of CIHP-1 cells (Ximbio) was RPMI 1640 with 10% fetal bovine serum (FBS), 1-fold of ITS (insulin-transferrin-selenium), and 1-fold Pen/Strep. The culture condition was 33° C. with 5% CO2. The cell detachment solution was Accutase® for 5 min at 33° C. The cell line passage ration was 1:3 every 3 or 4 days.
(§3) PAN-injury podocyte viability assay. Differentiated podocytes were either pretreated with dimethyl sulfoxide (DMSO) as vehicle, lobeglitazone, pioglitazone, rosiglitazone, or dexamethasone followed by puromycin aminonucleoside (PAN) treatment (5 μg/ml). Viability assays were performed after 3 or 5 days of treatments. […] For compound treatment, compounds were diluted to 20, 2, 0.2, 0.02 and 0.002 mM with DMSO. A volume of 1.8 μL of compounds was taken to 358.2 μL of culture medium and mixed. Media from plates were aspirated. A volume of 100 μL compound-added medium was added to each plate. Plates were placed in the incubator for 4 hours.
(§4) On day 0, CIHP-1 cells were seeded into two 96-well white plates using 5000 cell/well for 3 days (plate 1) or 2500 cell/well for 5 days (plate 2) treatment.
(§5) For compound treatment on Day 1, culture medium was aspirated. For each cell plate, 100 μl/well fresh medium with compounds was added for 4 hour. DMSO was used as control. After compound treatment for 4 hours, PAN was added to a final concentration of 5 μg/ml. No PAN treatment was used for the negative control. There was no medium change for the whole process.
(§6) On Day 4, for the first plate, Cell Titer-Glo (CTG) assay was used by adding 60 μl of CTG reagent into each well of the first plate, incubating at room temperature with shaking for 20 min, and then reading by the EnVision plate reader.
(§7) On Day 6, for the second plate, CTG assay was used by adding 60 μl of CTG reagent into each well of the second plate, incubating at RT with shaking for 20 min, and then reading by the EnVision plate reader.

[2] = test system: human podocyte cell line (CIHP-1); assay: as above; format: cell-based; conditions: for CIHP-1 proliferation by CTG, percentage compared to DMSO control (without PAN): 4 h pretreatment
From the text: as §1, §2, §3, §4, §5, §6, §7

[3] = compound 0.1 μM, PAN 5 μg/ml 3-day treatment
[4] = compound 0.1 μM, PAN 5 μg/ml 5-day treatment
[5] = compound 1 μM, PAN 5 μg/ml 3-day treatment
[6] = compound 1 μM, PAN 5 μg/ml 5-day treatment
[7] = compound 10 μM, PAN 5 μg/ml 3-day treatment
[8] = compound 10 μM, PAN 5 μg/ml 5-day treatment
[9] = compound 0.01 μM, PAN 5 μg/ml 3-day treatment
[10] = compound 0.01 μM, PAN 5 μg/ml 5-day treatment
[11] = compound 100 μM, PAN 5 μg/ml 3-day treatment
[12] = compound 100 μM, PAN 5 μg/ml 5-day treatment

SMILES	viability at 3 days, 5 μg/ml ([1]; 5 μg/ml PAN for 3 days)	viability at 5 days, 5 μg/ml ([1]; 5 μg/ml PAN for 5 days)	CIHP-1 proliferation by CTG, percentage compared to DMSO control (without PAN) [2, 3]	CIHP-1 proliferation by CTG, percentage compared to DMSO control (without PAN) [2, 4]	CIHP-1 proliferation by CTG, percentage compared to DMSO control (without PAN) [2, 5]	CIHP-1 proliferation by CTG, percentage compared to DMSO control (without PAN) [2, 6]	CIHP-1 proliferation by CTG, percentage compared to DMSO control (without PAN) [2, 7]	CIHP-1 proliferation by CTG, percentage compared to DMSO control (without PAN) [2, 8]	protection to PAN-injured podocytes ([2]; 0.01 to 100 μM, 3 days of PAN exposure)	improvement of podocyte viability ([2]; 0.01 to 100 μM, after 5 days of PAN injury)	CIHP-1 proliferation by CTG, percentage compared to DMSO control (without PAN) [2, 9]	CIHP-1 proliferation by CTG, percentage compared to DMSO control (without PAN) [2, 10]	CIHP-1 proliferation by CTG, percentage compared to DMSO control (without PAN) [2, 11]	CIHP-1 proliferation by CTG, percentage compared to DMSO control (without PAN) [2, 12]	concentration at which toxicity to the podocyte cells was observed ([2]; human, 3 days)
CN(C)c1ncnc2c1ncn2[C@@H]1O[C@H](CO)[C@@H](N)[C@H]1O [PAN, puromycin aminonucleoside]	70 to 80%	30 to 40%													
C[C@@H]1C[C@H]2[C@@H]3CCC4=CC(=O)C=C[C@]4(C)[C@@]3(F)[C@@H](O)C[C@]2(C)[C@@]1(O)C(=O)CO [dexamethasone]			79.9%	34.2%	73.9%	34.9%	74.7%	33.6%							
COc1ccc(Oc2cc(N(C)CCOc3ccc(CC4SC(=O)NC4=O)cc3)ncn2)cc1 (centres unmarked) [lobeglitazone, 5-(4-(2-((6-(4-Methoxyphenoxy)pyrimidin-4-yl)(methyl)amino)ethoxy)benzyl) thiazolidine-2,4-dione]			99.9%	33.0%	103.3%	32.8%	105%	33.7%	significant protection	did not show significant improvement	102.7%	31.0%	19.9%	6.2%	100 µM
CCc1ccc(CCOc2ccc(CC3SC(=O)NC3=O)cc2)nc1 (centres unmarked) [pioglitazone]			101.3%	38.3%	97.3%	30.0%	94.3%	33.4%			102.4%	35.2%	90.9%	22.4%	
CN(CCOc1ccc(CC2SC(=O)NC2=O)cc1)c1ccccn1 (centres unmarked) [rosiglitazone]			76.0%	32.7%	74.5%	33.6%	69.2%	29.1%			72.4%	32.6%	69.6%	15.0%	
